The record followed here is US6555563B1, “Heteroaryl substituted amidinyl and imidazolyl compounds and methods employing same for the treatment of inflammation” (Medinox, Inc., priority 2001, dated 2003).

The nature of data set [1]: Pharmacokinetics after oral administration in rats. As to conditions: rat. The data set is classed as in vivo, Male Sprague Dawley rats. How it is done: The animals are housed, fed and cared for according to the Guidelines of the […] Council on Animal Care. Male Sprague Dawley rats (250-300 g) are fasted overnight prior to each PO blood level study. The rats are placed in the restrainer one at a time and the box firmly secured. Compounds are prepared as required, in a standard dosing volume of 500 μL/250 g, and administered orally by passing a 16 gauge, 3″ gavaging needle into the stomach. Rats are catheterized at the carotid at least one day before drug administration and flushed with 30% PVP (400 U/mL of heparin) to prevent clotting in the tip. 250 μL blood samples are collected by unhooking the flush syringe and letting the blood flow freely in centrifuge tube at predetermined time points. The tubes should be centrifuged at 13,000 rpm for 10 min at 4° C. The plasma samples are collected in microcentrifuge tubes and stored immediately at −20° C. until analysis or analyzed immediately. Typical time points for determination of rat blood levels after PO dosing are: 30 min, 1 h, 3 h, 5 h, 7 h, 23 h, 25 h, 28 h, 31 h. A 100 μL aliquot of plasma sample is mixed with 150 μL of acetonitrile. After vortex and centrifuge, 200 μL of the supernatant is dried up under Speed Vac. The residue is reconstituted with 100 μL of methanol. After vortex and centrifuge again, 25 μL of supernatant is analyzed by C-18 HPLC column using UV detector. Quantitation is done relative to a clean blood sample spiked with a known quantity of drug.

The target in data set [2] is T1, COX-1 (Ovis aries, UniProt P05979).
T1 construct: host or cells: insect cells (membranes, CHAPS-solubilized)
T1 sequence (P05979 25-600): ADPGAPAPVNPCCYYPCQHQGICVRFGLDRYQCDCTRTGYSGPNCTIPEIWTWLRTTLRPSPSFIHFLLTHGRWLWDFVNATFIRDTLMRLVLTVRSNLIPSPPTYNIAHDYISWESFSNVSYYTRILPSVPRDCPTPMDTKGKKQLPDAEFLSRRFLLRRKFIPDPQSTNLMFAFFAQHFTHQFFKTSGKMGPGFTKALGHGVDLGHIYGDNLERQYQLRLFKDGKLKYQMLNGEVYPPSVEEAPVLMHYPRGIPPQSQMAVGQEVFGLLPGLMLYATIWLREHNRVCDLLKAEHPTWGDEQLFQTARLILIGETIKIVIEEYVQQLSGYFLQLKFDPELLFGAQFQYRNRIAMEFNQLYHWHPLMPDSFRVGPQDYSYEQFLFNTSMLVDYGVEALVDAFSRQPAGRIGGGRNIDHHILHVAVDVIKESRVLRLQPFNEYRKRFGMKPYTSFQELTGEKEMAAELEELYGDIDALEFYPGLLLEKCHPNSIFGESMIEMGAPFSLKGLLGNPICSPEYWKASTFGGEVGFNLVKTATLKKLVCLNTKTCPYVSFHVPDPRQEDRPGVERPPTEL
The data set can be described thus: Assay for COX-1 activity (Ovine), PGE2 formation by ELISA. As to conditions: for COX-1 10 nM (% inhibition) / inhibition at 0.01 µM: 10 nM compound; for COX-1 50 nM (% inhibition) / inhibition at 0.05 µM: 50 nM compound; for IC50: first number of cell COX1/COX2; for inhibition at 0.01 µM: read-out: COX-1 10 nM (% inhibition); for inhibition at 0.05 µM: read-out: COX-1 50 nM (% inhibition). The data set is classed as biochemical. How it is done:
(§1) COX activity was assayed as PGE2 formed/μg protein/time using ELISA to detect prostaglandin release. CHAPS-solubilized insect cell membranes containing the appropriate COX enzyme were incubated in a potassium phosphate buffer (50 mM, pH 8.0) containing Tris-HCl, EDTA, phenol, and heme with the addition of arachidonic acid (10 μM). Compounds were pre-incubated with the enzyme for 5-10 minutes prior to the addition of arachidonic acid. Any reaction between the arachidonic acid and the enzyme was stopped after two minutes at 37° C. The PGE2 formed was measured by standard ELISA technology (Cayman Chemical).

Data set [3] has as its target T2, COX-2 (Ovis aries, UniProt P79208).
T2 construct: host or cells: insect cells (membranes, CHAPS-solubilized)
T2 sequence (P79208 17-603): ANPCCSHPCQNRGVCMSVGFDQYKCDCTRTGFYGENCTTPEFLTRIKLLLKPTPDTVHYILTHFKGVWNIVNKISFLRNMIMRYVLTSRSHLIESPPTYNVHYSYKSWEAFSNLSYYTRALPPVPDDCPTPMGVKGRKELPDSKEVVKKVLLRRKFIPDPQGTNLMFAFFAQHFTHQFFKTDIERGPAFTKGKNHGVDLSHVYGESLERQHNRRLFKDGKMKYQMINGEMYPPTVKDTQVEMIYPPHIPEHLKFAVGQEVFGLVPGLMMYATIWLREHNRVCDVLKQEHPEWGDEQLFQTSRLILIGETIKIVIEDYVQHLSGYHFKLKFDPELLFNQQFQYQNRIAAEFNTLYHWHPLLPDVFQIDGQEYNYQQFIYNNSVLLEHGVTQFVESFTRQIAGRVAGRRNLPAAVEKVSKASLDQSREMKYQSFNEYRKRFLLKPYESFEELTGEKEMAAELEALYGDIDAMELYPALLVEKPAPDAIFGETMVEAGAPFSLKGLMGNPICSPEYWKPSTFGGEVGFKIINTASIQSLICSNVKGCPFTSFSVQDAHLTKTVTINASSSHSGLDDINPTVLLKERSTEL
Description: Assay for COX-2 activity (Ovine), PGE2 formation by ELISA. The format is biochemical. The following applies: for COX-2 10 nM (% inhibition) / inhibition at 0.01 µM: 10 nM compound; for COX-2 50 nM (% inhibition) / inhibition at 0.05 µM: 50 nM compound; for Selectivity: IC50 COX1 / IC50 COX2; for IC50: second number of cell COX1/COX2; for inhibition at 0.01 µM: read-out: COX-2 10 nM (% inhibition); for inhibition at 0.05 µM: read-out: COX-2 50 nM (% inhibition). How it is done: as §1

Data set [4] has as its system adjuvant-induced arthritis in rats. The data set can be described thus: Adjuvant-induced arthritis rat model, inhibition of paw swelling. The data set is classed as in vivo, Male Lewis rats. As to conditions: oral, daily, days 8-15; paw volume day 15.

Regarding `N=C(Nc1ccc(S(N)(=O)=O)cc1)c1nnc(-c2ccccc2)s1` [Example 32, N-[4-(Aminosulfonyl)phenyl]-3-[2-(phenyl)-1,3,4-thiadiazol-5-yl]carboximidamide], the “half-life compared with Celecoxib (in words)” value in data set [1] is “longer half-life”. In addition, in data set [2], the “COX-1 10 nM (% inhibition)” value is 15%, the “COX-1 50 nM (% inhibition)” value came out at 45% and the IC50 worked out at 79 nM. Besides, in data set [3], the “COX-2 10 nM (% inhibition)” value is on record as 85%, the “COX-2 50 nM (% inhibition)” value was 94%, the Selectivity was 17 and the IC50 was 4.8 nM.

Take `CS(=O)(=O)c1ccc(-n2cc(C(F)(F)F)nc2-c2nnc(-c3ccccc3)s2)cc1` [Example 44, 1-[4-(Methylsulfonyl)phenyl]-2-(2-phenyl-1,3,4-thiadiazol-5-yl)-4-(trifluoromethyl)-1H-imidazole]: in data set [2], the IC50 is 27 nM, the inhibition at 0.01 µM amounted to 30% and the inhibition at 0.05 µM came out at 45%. In data set [3], the Selectivity was 12, the inhibition at 0.01 µM was determined as 95%, the inhibition at 0.05 µM turned out to be 100% and it took 2.3 nM to reach half-maximal inhibition (IC50).

With `NS(=O)(=O)c1ccc(-n2cc(C(F)(F)F)nc2-c2nnc(-c3ccccc3)s2)cc1` [Example 48, 1-[4-(Aminosulfonyl)phenyl]-2-[2-(phenyl)-1,3,4-thiadiazol-5-yl]-4-(trifluoromethyl)-1H-imidazole], in data set [4], the “potency in controlling inflammation (in words)” value was “good potency in controlling inflamation”. In addition, in data set [1], the “half-life compared with Celecoxib (in words)” value is reported as “longer half-life” and the “pharmacology (pharmacokinetic) profile (in words)” value is “excellent pharmacology profile”. In data set [2], half-maximal inhibition (IC50) required 36 nM, the inhibition at 0.01 µM is 10% and the inhibition at 0.05 µM amounted to 25%. Moreover, in data set [3], the “selectivity for the inhibition of COX-2 over COX-1 (in words)” value is “good selectivity”, the Selectivity is 90, the inhibition at 0.01 µM amounted to 84% and the inhibition at 0.05 µM turned out to be 100%. Besides, in data set [3], it took 0.4 nM to reach half-maximal inhibition (IC50).

With `CS(=O)(=O)c1ccc(-n2cc(C(F)(F)F)nc2-c2nnc(Nc3ccccc3)s2)cc1` [Example 52, 1-[4-(Methylsulfonyl)phenyl]-2-[2-(N-anilino)-1,3,4-thiadiazol-5-yl]-4-(trifluoromethyl)-1H-imidazole], in data set [2], the “COX-1 10 nM (% inhibition)” value is recorded as 31% and the IC50 was 62 nM. For the same compound, in data set [3], the “COX-2 10 nM (% inhibition)” value was determined as 98%, the Selectivity is on record as 12 and the IC50 is 5.1 nM.

Take `Cc1onc(-c2ccccc2)c1-c1ccc(S(N)(=O)=O)cc1` [Valdecoxib, reference compound]: the inhibition at 0.01 µM in data set [2] is 2%.

As to “N-[4-(Aminosulfonyl)phenyl]-3-[2-(4-fluorophenyl)-1,3,4-thiadiazol-5-yl]carboximidamide [Example 33]”, in data set [1], the “half-life compared with Celecoxib (in words)” value is “longer half-life”. In data set [2], the “COX-1 10 nM (% inhibition)” value is 23%, the “COX-1 50 nM (% inhibition)” value amounted to 52% and the IC50 was determined as 36 nM. For the same compound, in data set [3], the “COX-2 10 nM (% inhibition)” value worked out at 84%, the “COX-2 50 nM (% inhibition)” value worked out at 100%, the Selectivity came out at 11 and the IC50 was 3.3 nM.
